In paper PMC10599482 (Chemical Science, 2023):

Assay: CD spectroscopy, percent helicity
Assay type: physicochemical
Details: 50.0% TFE aqueous solution, 0.1 mg/mL peptide, 20 °C, calculated from [θ]222

With `CC[C@H](C)[C@H](NC(=O)[C@H](C)NC(=O)[C@H](CCC(=O)O)NC(=O)[C@H](CCC(=O)O)NC(=O)[C@H](CC(C)C)NC(=O)[C@H](CCCCN)NC(=O)[C@H](CCCCN)NC(=O)[C@H](CCSC)NC(=O)[C@H](CCC(=O)O)NC(=O)[C@H](Cc1ccc(O)cc1)NC(=O)[C@H](CCC(=O)O)NC(=O)[C@H](CC(C)C)NC(=O)[C@H](CC(=O)O)NC(=O)[C@H](CC(C)C)NC(=O)[C@H](Cc1ccccc1)NC(=O)[C@@H](NC(=O)[C@@H](NC(=O)[C@H](CC(N)=O)NC(=O)[C@@H](NC(=O)[C@H](CCC(N)=O)NC(=O)[C@H](CC(=O)O)NC(=O)[C@H](CC(C)C)NC(=O)[C@H](CO)NC(C)=O)[C@@H](C)CC)C(C)C)[C@@H](C)O)C(=O)N[C@@H](CCCCN)C(=O)N[C@@H](CCCCN)C(=O)N[C@@H](CC(C)C)C(=O)N[C@@H](CCC(=O)O)C(=O)N[C@@H](CCC(=O)O)C(=O)N[C@@H](CO)C(=O)N[C@@H](Cc1ccc(O)cc1)C(=O)N[C@H](C(=O)N[C@@H](CC(=O)O)C(=O)N[C@@H](CC(C)C)C(=O)N[C@@H](CCCCN)C(=O)N[C@@H](CCC(=O)O)C(=O)N[C@@H](CC(C)C)C(N)=O)[C@@H](C)CC` [EK1] the “α-Helicity (%)” value was 13.6%.
